pKi: −log10 of the molar value. “And” between values parts separate entries of the source, which are not always exact repeats. Equal values may be shown once.

The assay has as its target D(2) dopamine receptor (Homo sapiens, UniProt P14416).

Chain of D(2) dopamine receptor (P14416 whole entry): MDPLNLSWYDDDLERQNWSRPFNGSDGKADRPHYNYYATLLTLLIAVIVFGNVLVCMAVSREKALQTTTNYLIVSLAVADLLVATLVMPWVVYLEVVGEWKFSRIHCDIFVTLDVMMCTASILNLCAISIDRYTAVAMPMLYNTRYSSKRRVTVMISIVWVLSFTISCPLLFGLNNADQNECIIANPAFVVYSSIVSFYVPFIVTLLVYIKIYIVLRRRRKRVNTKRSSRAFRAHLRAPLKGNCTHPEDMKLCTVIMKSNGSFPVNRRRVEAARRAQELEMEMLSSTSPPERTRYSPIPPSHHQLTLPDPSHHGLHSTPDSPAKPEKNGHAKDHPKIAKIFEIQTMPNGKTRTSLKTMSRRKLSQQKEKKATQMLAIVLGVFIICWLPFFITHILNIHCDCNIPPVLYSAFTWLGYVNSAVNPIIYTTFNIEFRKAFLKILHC

In general, pKi refers to −log10 of the Ki, conventionally taken in molar units. In the case of `OCCN1CCN(CC/C=C2/c3ccccc3Sc3ccc(C(F)(F)F)cc32)CC1` [(cis) 2-{4-[3-(2-Trifluoromethyl-thioxanthen-9-ylidene)-propyl]-piperazin-1-yl}-ethanol(Flupentixol)], the pKi was 9.22 and 8.64 and 9.18 and 9.14 and 8.60.

These data come from BindingDB's records for PubMed 1828505 (University of Pennsylvania, 1991).
